Reference: PMC10949195, “Exponential Combination of a and e/g Intracellular Peptide Libraries Identifies a Selective ATF3 Inhibitor” (ACS Chemical Biology, 2024)

T1: ATF3 (Homo sapiens, UniProt P18847)
T1 construct: We focus on the selective targeting of the ATF3 leucine zipper dimerization domain using intracellular peptide library screening; made in house; host or cells: chemical solid-phase peptide synthesis (no expression host)
T1 sequence (P18847 110-143): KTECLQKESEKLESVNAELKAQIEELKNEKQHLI

T2: ATF3W_aeg (synthetic construct)
T2 chain: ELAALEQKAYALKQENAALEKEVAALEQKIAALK


Experiments:
[1] = test system: M2 macrophages differentiated from the human THP-1 monocytic cell line; experiment: THP-1 polarization assay and CCL-4 ELISA; type: cell-based; conditions: M2 macrophages from THP-1 (IL-4 polarized); 20 μM peptide with NLS-TAT appendage; 48 h; versus untreated
Excerpt: ATF3 is a transcriptional repressor that regulates both the extent and duration of pro-inflammatory gene expression.[17] Specifically, ATF3 has been implicated in the transcriptional repression of chemokines including chemokine (C–C motif) ligand 4 (CCL4),[18] also known as macrophage inflammatory protein (MIP-1β), which promotes recruitment of additional immune cells to inflamed tissues. In the context of cancer, ATF3 activity counters antitumor immunity and promotes tumor growth. We therefore explored the effect of the ATF3W-aeg antagonist peptide on CCL4 expression in M2 anti-inflammatory macrophages differentiated from the human THP-1 monocytic cell line. […]
Figure 10 ATF3W-aeg peptide stimulates expression of pro-inflammatory cytokine in M2 macrophages. CCL4 protein levels were measured by ELISA from supernatants of M2 macrophage cultures treated with either 20 μM ATF3W-aeg or negative control peptide (****p < 0.0001). […]
THP-1 cells were seeded in 12-well format at a concentration of 5 × 10^5 cells/well and treated with 7.5 ng/mL Phorbol 12-Myristate 13-Acetate (PMA, Sigma-Aldrich) in RPMI media supplemented with 10% FBS and 55 μM β-mercaptoethanol (BME). […] After 48 h, supernatants were collected and clarified by centrifugation, and the CCL-4 concentration was assessed by ELISA (MIP-1b Human Instant ELISA Kit, ThermoFisher Scientific) according to the manufacturer’s protocol.

ATF3 = biological target: T1, ATF3; experiment: CD thermal denaturation of peptide mixed 1:1 with ATF3; type: binding; conditions: peptide incubated with ATF3; CD signal at 222 nm, 1 °C increments; 150 μM total peptide; 10 mM potassium phosphate, 100 mM potassium fluoride, pH 7.0; two-state denaturation model
Excerpt: Following the observed significant increase in global secondary structure content for the ATF3-ATF3W_aeg complex relative to component peptides (Figure 6), we next analyzed the stability of the complex by undertaking thermal denaturation experiments (Figure 7). […] Moreover, consistent with spectral data, the clear increase from the average profile of the component peptides relative to that of the measured is most pronounced in the combined construct (Figure 7, red hash vs black). This provides robust additional evidence for a preferential interaction between ATF3 and ATF3W_aeg that is improved over either the core a or electrostatic e/g constructs.
Shown are thermal stabilities of peptide pairs measured via temperature dependence of the CD signal at 222 nm. The thermal denaturation profiles for (a) ATF3-ATF3W_a, (b) ATF3-ATF3W_eg, and (c) ATF3-ATF3W_aeg show a substantial increase in the transition midpoint (Tm = 59 °C) relative to component peptides (black vs red hash). Experiments were performed in 10 mM potassium phosphate and 100 mM potassium fluoride (pH 7.0). All spectra were recorded at 1 °C increments at a total peptide concentration of 150 μM and fitted to a two-state denaturation model.
Thermal denaturation experiments were performed at 150 μM total protein concentration in 10 mM potassium phosphate and 100 mM potassium fluoride, pH 7, using an Applied Photophysics Chirascan CD instrument (Leatherhead, UK) as previously described.[23]

ATF3W_aeg = biological target: T2, ATF3W_aeg; experiment: ITC

| Molecule | transition midpoint (Tm) of heterodimer with ATF3 (ATF3) [°C] | other results |
| --- | --- | --- |
| Ac-KAAALKQKAYALKQQIAALKKQVAALKQKIAALKPKKKRKVYGRKKRRQRRR-NH2 [Fra1W-NLS TAT, reference compound] | – | effect on CCL4 expression (protein in supernatant, ELISA) [1]: no effect |
| EAAALEQKIYALKQEAAALEKEIAALEQKAAALK [ATF3W_eg] | 52 | – |
| QLAALQQQAYALQQQNAALQKQVAALQQQIAALQ [ATF3W_a] | 26 | – |
| TECLQKESEKLESVNAELKAQIEELKNEKQHLIYM [ATF3 leucine zipper] | – | Kd (ATF3W_aeg): 151 nM |
